This passage reports Activity, DC50 and IC50 results from ChEMBL document CHEMBL5550201, “Discovery of a Highly Potent, Selective and Efficacious USP7 Degrader for the Treatment of Acute Lymphoblastic Leukemia” (J Med Chem, 2024).

Active and inactive are the calls of the source. No cut-off for these calls is given here.

Test [1] addresses T1, von Hippel-Lindau disease tumor suppressor/Ubiquitin carboxyl-terminal hydrolase 7 (Homo sapiens, UniProt Q93009+P40337). As to the kind of experiment: PROTACT activity at USP7/VHL in human RS4;11 cells assessed as protein degradation at 10 nM measured after 24 hrs by Western blot analysis relative to control. It is filed as cell-based. On the technique in general: A western blot detects proteins with antibodies after separation by electrophoresis.

In test [2] the target is T1, von Hippel-Lindau disease tumor suppressor/Ubiquitin carboxyl-terminal hydrolase 7. Kind of test: PROTACT activity at USP7/VHL in human RS4;11 cells assessed as protein degradation at 100 nM measured after 24 hrs by Western blot analysis relative to control. It is filed as cell-based.
In test [3] the target is von Hippel-Lindau disease tumor suppressor/USP7. As to the kind of experiment: PROTACT activity at USP7 (unknown origin) /E3 ligase (unknown origin) assessed as protein degradation.
Test [4] concerns RS4-11. As to the kind of experiment: Antiproliferative activity against human RS4-11 cells with wild type p53 assessed as cell viability measured after 3 days by PMS-MTS assay. It is filed as functional, cell-based. To be noted: RS4-11, 72 h.
The target in test [5] is T1, von Hippel-Lindau disease tumor suppressor/Ubiquitin carboxyl-terminal hydrolase 7. Kind of test: PROTACT activity at USP7/VHL in human REH cells assessed as protein degradation at 10 to 100 nM measured after 12 hrs by Western blot analysis. It is filed as cell-based. The following applies: dose 10-100 nM.
For test [6], the system named is RS4-11. As to the kind of experiment: Antiproliferative activity against human RS4-11 cells with shp53 assessed as cell viability measured after 7 days by PMS-MTS assay. It is filed as functional, cell-based. The following applies: RS4-11, 168 h.
Test [7] concerns the target T1, von Hippel-Lindau disease tumor suppressor/Ubiquitin carboxyl-terminal hydrolase 7. Kind of test: PROTACT activity at USP7/VHL in human RS4;11 cells assessed as protein degradation at 10 to 100 nM measured after 12 hrs by Western blot analysis. To be noted: dose 10-100 nM. It is filed as cell-based.
The next test concerns REH. As to the kind of experiment: Antiproliferative activity against human REH cells with wild type p53 assessed as cell viability measured after 3 days by PMS-MTS assay. It is filed as functional, cell-based. The following applies: 72 h. (Tetrazolium assays rely on reduction of a dye to a coloured formazan, in cell work by metabolically active cells.)
Test [8] concerns the target T1, von Hippel-Lindau disease tumor suppressor/Ubiquitin carboxyl-terminal hydrolase 7. Kind of test: PROTACT activity at USP7/VHL in human OCI-Ly10 cells assessed as protein degradation at 10 to 100 nM measured after 12 hrs by Western blot analysis. To be noted: dose 10-100 nM. It is filed as cell-based.
The test system of the next test is MDA-MB-468. As to the kind of experiment: Antiproliferative activity against human MDA-MB-468 cells assessed as cell viability measured after 6 days by Celltiter glo2.0 cell viability assay. It is filed as functional, cell-based. To be noted: MDA-MB-468, 144 h. In general terms: Cellular ATP, detected with luciferase, serves as a proxy for viable cell number.
The next test deals with BT-549. As to the kind of experiment: Antiproliferative activity against human BT-549 cells assessed as cell viability measured after 6 days by Celltiter glo2.0 cell viability assay. It is filed as functional, cell-based. The following applies: BT-549, 144 h.
Test [9] has as its target Protein cereblon/Ubiquitin carboxyl-terminal hydrolase 7 (Homo sapiens, UniProt Q93009+Q96SW2). As to the kind of experiment: PROTACT activity at USP7/CRBN in human CAL-33 cells assessed as protein degradation measured after 72 hrs by immune blot analysis. It is filed as cell-based.

T1 sequence (P40337 whole entry, looked up): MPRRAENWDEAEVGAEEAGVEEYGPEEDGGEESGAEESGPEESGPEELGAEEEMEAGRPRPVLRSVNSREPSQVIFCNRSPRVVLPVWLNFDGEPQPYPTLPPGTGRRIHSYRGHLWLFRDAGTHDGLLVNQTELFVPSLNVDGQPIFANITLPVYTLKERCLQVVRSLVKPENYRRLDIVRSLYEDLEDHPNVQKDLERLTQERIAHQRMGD
T1 sequence (Q93009 whole entry, looked up): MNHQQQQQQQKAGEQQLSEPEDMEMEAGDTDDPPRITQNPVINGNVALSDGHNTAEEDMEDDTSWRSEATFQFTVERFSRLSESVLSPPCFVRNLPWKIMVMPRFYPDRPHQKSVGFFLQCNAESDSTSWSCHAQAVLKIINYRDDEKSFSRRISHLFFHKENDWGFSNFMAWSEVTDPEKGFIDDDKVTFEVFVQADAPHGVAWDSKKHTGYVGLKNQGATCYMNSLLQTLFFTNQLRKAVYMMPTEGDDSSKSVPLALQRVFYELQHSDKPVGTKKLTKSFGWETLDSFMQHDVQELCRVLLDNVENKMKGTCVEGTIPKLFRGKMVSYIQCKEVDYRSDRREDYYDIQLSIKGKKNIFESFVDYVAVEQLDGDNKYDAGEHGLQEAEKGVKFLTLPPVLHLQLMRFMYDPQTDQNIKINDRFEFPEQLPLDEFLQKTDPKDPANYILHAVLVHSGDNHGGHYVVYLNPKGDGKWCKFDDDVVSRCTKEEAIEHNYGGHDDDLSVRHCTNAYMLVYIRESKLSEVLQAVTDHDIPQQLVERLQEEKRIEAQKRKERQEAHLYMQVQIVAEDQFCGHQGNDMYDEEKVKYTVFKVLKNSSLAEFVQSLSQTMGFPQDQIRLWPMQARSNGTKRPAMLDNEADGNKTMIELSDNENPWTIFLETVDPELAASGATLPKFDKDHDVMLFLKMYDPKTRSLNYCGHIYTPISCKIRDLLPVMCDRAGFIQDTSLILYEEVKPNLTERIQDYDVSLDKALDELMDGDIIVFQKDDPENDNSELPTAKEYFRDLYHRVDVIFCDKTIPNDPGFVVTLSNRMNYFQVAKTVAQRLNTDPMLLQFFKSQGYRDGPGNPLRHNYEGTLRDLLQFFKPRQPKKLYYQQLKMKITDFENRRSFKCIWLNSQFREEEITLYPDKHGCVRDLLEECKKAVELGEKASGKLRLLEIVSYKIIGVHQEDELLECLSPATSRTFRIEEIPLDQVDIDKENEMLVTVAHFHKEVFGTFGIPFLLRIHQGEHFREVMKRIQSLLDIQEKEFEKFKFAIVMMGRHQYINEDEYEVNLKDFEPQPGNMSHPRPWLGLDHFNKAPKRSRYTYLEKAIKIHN
Chain of Protein cereblon/Ubiquitin carboxyl-terminal hydrolase 7 (Q93009 whole entry): as the sequence (Q93009 whole entry, looked up) above
Chain of Protein cereblon/Ubiquitin carboxyl-terminal hydrolase 7 (Q96SW2 whole entry): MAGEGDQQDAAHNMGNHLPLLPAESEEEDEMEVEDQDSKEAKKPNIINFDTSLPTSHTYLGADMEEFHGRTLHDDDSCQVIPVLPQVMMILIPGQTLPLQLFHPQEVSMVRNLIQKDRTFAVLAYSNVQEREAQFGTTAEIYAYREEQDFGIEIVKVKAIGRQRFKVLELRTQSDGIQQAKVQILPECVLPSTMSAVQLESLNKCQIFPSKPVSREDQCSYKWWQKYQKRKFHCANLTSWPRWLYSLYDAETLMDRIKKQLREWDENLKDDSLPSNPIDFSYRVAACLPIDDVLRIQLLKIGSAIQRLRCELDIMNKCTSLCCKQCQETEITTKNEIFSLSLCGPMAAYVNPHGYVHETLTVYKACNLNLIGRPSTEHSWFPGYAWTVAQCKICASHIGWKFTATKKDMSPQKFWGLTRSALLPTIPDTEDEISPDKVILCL

On to `Cc1ncsc1-c1ccc([C@H](C)NC(=O)[C@@H]2C[C@@H](O)CN2C(=O)[C@@H](NC(=O)CCCCCCCNCc2ccc(-c3c4ncn(CC5(O)CCN(C(=O)C[C@@H](C)c6ccccc6)CC5)c(=O)c4nn3C)cc2)C(C)(C)C)cc1`, for which the Activity in test [1] came out at 46.9%; in test [2], 58.1%.

With `C[C@H](CC(=O)N1CCC(O)(Cn2cnc3c(-c4ccc(CNCCCCCCCCCCCNc5cccc6c5C(=O)N(C5CCC(=O)NC5=O)C6=O)cc4)n(C)nc3c2=O)CC1)c1ccccc1` (some centres not stated), in test [3], the DC50 is around 33 nM.

`Cc1ncsc1-c1ccc([C@H](C)NC(=O)[C@@H]2C[C@@H](O)CN2C(=O)[C@@H](NC(=O)CCCCCCCCCNCc2ccc(-c3c4ncn(CC5(O)CCN(C(=O)C[C@@H](C)c6ccccc6)CC5)c(=O)c4nn3C)cc2)C(C)(C)C)cc1`: the Activity in test [1] is 29.2%; in test [2] it was 55.1%.

For the molecule `Cc1ncsc1-c1ccc([C@H](C)NC(=O)[C@@H]2C[C@@H](O)CN2C(=O)[C@@H](c2cc(N3CCC(CN4CCC(NCc5ccc(-c6c7ncn(CC8(O)CCN(C(=O)C[C@@H](C)c9ccccc9)CC8)c(=O)c7nn6C)cc5)CC4)CC3)no2)C(C)C)cc1`, the Activity in test [1] worked out at 22.2%; in [2], 37.7%.

For `Cc1ncsc1-c1ccc([C@H](C)NC(=O)[C@@H]2C[C@@H](O)CN2C(=O)[C@@H](NC(=O)CCCCCCCCCCNCc2ccc(-c3c4ncn(CC5(O)CCN(C(=O)C[C@@H](C)c6ccccc6)CC5)c(=O)c4nn3C)cc2)C(C)(C)C)cc1`, the Activity in [1] came out at 30.1%; in [2], 66.7%.

As to `Cc1ncsc1-c1ccc([C@H](C)NC(=O)[C@@H]2C[C@@H](O)CN2C(=O)[C@@H](NC(=O)CCOCCOCCNCc2ccc(-c3c4ncn(CC5(O)CCN(C(=O)C[C@@H](C)c6ccccc6)CC5)c(=O)c4nn3C)cc2)C(C)(C)C)cc1`, the Activity in test [1] amounted to 12.8%; in test [2] it was 26.8%.

For `Cc1ncsc1-c1ccc([C@H](C)NC(=O)[C@@H]2C[C@@H](O)CN2C(=O)[C@@H](NC(=O)CCOCCOCCOCCNCc2ccc(-c3c4ncn(CC5(O)CCN(C(=O)C[C@@H](C)c6ccccc6)CC5)c(=O)c4nn3C)cc2)C(C)(C)C)cc1`, the Activity amounted to 26.1% in test [1] and 33.6% in test [2].

For the molecule `Cc1ncsc1-c1ccc([C@H](C)NC(=O)[C@@H]2C[C@@H](O)CN2C(=O)[C@@H](c2cc(N3CCC(CN4CC(NCc5ccc(-c6c7ncn(CC8(O)CCN(C(=O)C[C@@H](C)c9ccccc9)CC8)c(=O)c7nn6C)cc5)C4)CC3)no2)C(C)C)cc1`, the Activity came out at 0.4% in test [1] and 60.2% in test [2].

Take `Cc1ncsc1-c1ccc([C@H](C)NC(=O)[C@@H]2C[C@@H](O)CN2C(=O)[C@@H](c2cc(N3CCC(CN4CC(CNCc5ccc(-c6c7ncn(CC8(O)CCN(C(=O)C[C@@H](C)c9ccccc9)CC8)c(=O)c7nn6C)cc5)C4)CC3)no2)C(C)C)cc1`: the Activity came out at 35% in test [1] and 55.1% in test [2].

Regarding `Cc1ncsc1-c1ccc([C@H](C)NC(=O)[C@@H]2C[C@H](O)CN2C(=O)[C@@H](c2cc(N3CCN(Cc4ccc(-c5c6ncn(CC7(O)CCN(C(=O)C[C@@H](C)c8ccccc8)CC7)c(=O)c6nn5C)cc4)CC3)no2)C(C)C)cc1`, the values for the IC50 in the test on RS4-11 [4], with RS4-11 [6] and with REH were 873 nM, above 20 µM and 7.39 µM, respectively. In addition, the outcome in test [5], in test [7] and in test [8] was inactive.

For the molecule `Cc1ncsc1-c1ccc([C@H](C)NC(=O)[C@@H]2C[C@@H](O)CN2C(=O)[C@@H](c2cc(N3CCC(CN4CCC(CNCc5ccc(-c6c7ncn(CC8(O)CCN(C(=O)C[C@@H](C)c9ccccc9)CC8)c(=O)c7nn6C)cc5)CC4)CC3)no2)C(C)C)cc1`, the Activity in test [1] came out at 50.8%; in [2], 73.5%.

Take `Cc1ncsc1-c1ccc([C@H](C)NC(=O)[C@@H]2C[C@@H](O)CN2C(=O)[C@@H](c2cc(N3CCC(N4CCC(NCc5ccc(-c6c7ncn(CC8(O)CCN(C(=O)C[C@@H](C)c9ccccc9)CC8)c(=O)c7nn6C)cc5)CC4)CC3)no2)C(C)C)cc1`: the Activity in test [1] was determined as 25.6%; in test [2], 37.3%.

For the molecule `Cc1ncsc1-c1ccc([C@H](C)NC(=O)[C@@H]2C[C@@H](O)CN2C(=O)[C@@H](NC(=O)CCOCCOCCOCCOCCNCc2ccc(-c3c4ncn(CC5(O)CCN(C(=O)C[C@@H](C)c6ccccc6)CC5)c(=O)c4nn3C)cc2)C(C)(C)C)cc1`, the Activity in [1] was 13%; in [2], 44.4%.

With `Cc1ncsc1-c1ccc([C@H](C)NC(=O)[C@@H]2C[C@@H](O)CN2C(=O)[C@@H](c2cc(N3CCC(N4CC(NCc5ccc(-c6c7ncn(CC8(O)CCN(C(=O)C[C@@H](C)c9ccccc9)CC8)c(=O)c7nn6C)cc5)C4)CC3)no2)C(C)C)cc1`, the Activity in [1] came to 16%; in [2] it was 16.9%.

As for `Cc1ncsc1-c1ccc([C@H](C)NC(=O)[C@@H]2C[C@@H](O)CN2C(=O)[C@@H](c2cc(N3CCC(N4CC(CNCc5ccc(-c6c7ncn(CC8(O)CCN(C(=O)C[C@@H](C)c9ccccc9)CC8)c(=O)c7nn6C)cc5)C4)CC3)no2)C(C)C)cc1`, the values for the Activity in test [1] and in test [2] were 15.5% and 25.6%, respectively.

Turning to `Cc1ncsc1-c1ccc([C@H](C)NC(=O)[C@@H]2C[C@@H](O)CN2C(=O)[C@@H](NC(=O)CCCCCCCCNCc2ccc(-c3c4ncn(CC5(O)CCN(C(=O)C[C@@H](C)c6ccccc6)CC5)c(=O)c4nn3C)cc2)C(C)(C)C)cc1`, the Activity in [1] stood at 26.1%; in [2], 39.1%.

Turning to `O=C1CCC(N2Cc3c(CCCCCN4CCN(CCC(=O)Nc5ccc6c(=O)n(CC7(O)CCN(C(=O)C(CCCNC(=O)c8ccc9c(Cl)c%10c(nc9c8)CCCC%10)Cc8ccccc8)CC7)cnc6c5)CC4)cccc3C2=O)C(=O)N1` (configuration not stated), the IC50 came out at 1800 nM with MDA-MB-468 and 2800 nM with BT-549. Moreover, the DC50 in [9] worked out at 4.3 nM.

For `Cc1ncsc1-c1ccc([C@H](C)NC(=O)[C@@H]2C[C@@H](O)CN2C(=O)[C@@H](NC(=O)CCCCCCCCCCCNCc2ccc(-c3c4ncn(CC5(O)CCN(C(=O)C[C@@H](C)c6ccccc6)CC5)c(=O)c4nn3C)cc2)C(C)(C)C)cc1`, the Activity in [1] is 31.9%; in test [2], 75.5%.

As for `Cc1ncsc1-c1ccc([C@H](C)NC(=O)[C@@H]2C[C@@H](O)CN2C(=O)[C@@H](c2cc(N3CCC(CNCc4ccc(-c5c6ncn(CC7(O)CCN(C(=O)C[C@@H](C)c8ccccc8)CC7)c(=O)c6nn5C)cc4)CC3)no2)C(C)C)cc1`, the values for the Activity in test [1] and in [2] were 69.5% and 91.3%, respectively.

As to `C[C@H](CC(=O)N1CCC(O)(Cn2cnc3c(-c4ccc(CN)cc4)n(C)nc3c2=O)CC1)c1ccccc1`, the IC50 is 69 nM in the test on RS4-11 [4], above 20 µM in the test on RS4-11 [6] and 0.0203 µM with REH.

Turning to `Cc1ncsc1-c1ccc([C@H](C)NC(=O)[C@@H]2C[C@@H](O)CN2C(=O)[C@@H](NC(=O)CCCCCNCc2ccc(-c3c4ncn(CC5(O)CCN(C(=O)C[C@@H](C)c6ccccc6)CC5)c(=O)c4nn3C)cc2)C(C)(C)C)cc1`, the Activity was determined as 38% in test [1] and 56.5% in test [2].

One may read the DC50 as the midpoint of the concentration-degradation curve. Broadly, the IC50 is the point on the concentration scale where inhibition reaches its midpoint.
